Test results as given in patent US12648903B2, “Skin care composition” (BEIERSDORF AG, priority 2019, dated 2026).

Legend:
[1] = tested on: C. acnes strain K8; experiment: Minimum inhibitory concentration (MIC) of cosmetic excipients, strain K8; format: cell-based, Cutibacterium acnes; conditions: % w/vol, incubated anaerobically 3 days at 37° C., growth scored visually
Method: (§1) In microbiology, the MIC is the lowest concentration of a chemical which prevents visible growth of bacterium. The resulted MIC value depends both on the microorganism and the test compound. The MIC is determined by preparing concentrations series of the test compound in vitro, incubating the solutions with the separate batches of cultured bacteria, and measuring the results using agar dilution or broth microdilution. For the experiments with C. acnes strains C3 and K8, media comprising yeast extract soy peptone and dextrose were used. The MIC is determined by turbidity.
(§2) A total of 125 cosmetic excipients were tested for their compatibility with C. acnes strains C3 and K8. Hydrophilic compounds were tested in a 96-well plate liquid broth format, poorly soluble compounds were pre-dissolved in DMSO before dilution in liquid broth and hydrophobic or solid compounds were tested in an agar well diffusion test assay. The different dilutions of the test excipients in media were prepared in Falcon tubes and then distributed in a deep well plate using a multistepper. Each well received 1.2 ml and was subsequently inoculated with 120 μl of C. acnes bacteria suspension (strain C3 and K8). From the deep well plate 200 μl were transferred in each well of a clear 96 well replicate plate. The leftover was discarded. The plates were then incubated anaerobically for 3 days at 37° C. Following incubation, the test plates were visually examined and wells were scored for growth or complete growth inhibition to define the minimum inhibitory concentration.
(§3) These excipients are listed in the below table with their compatibility values for C. acnes strains C3 and K8. The compatibility values represent the MIC value of the listed ingredients with the tested C. acnes strains. At this concentration [% w/vol] the tested compound starts interfering with the growth of the tested strains. The compounds can be used in formulations at concentrations below this concentration.

[2] = tested on: C. acnes strain C3; experiment: Minimum inhibitory concentration (MIC) of cosmetic excipients, strain C3; format: cell-based, Cutibacterium acnes; conditions: % w/vol, incubated anaerobically 3 days at 37° C., growth scored visually
Method: as §1, §2, §3

Molecule | COMPATABILITY VALUE K8 [%] (MIC value) [1] | COMPATABILITY VALUE C3 [%] (MIC value) [2]
CC(CO)CO [methylpropanediol] | 4.00% | 4.00%
ethylhexyl cocoate | 10.00% | 10.00%
tocopherol | 1.50% | 1.50%
CCCCCCC(O)CO (centres unmarked) [caprylyl glycol] | 0.18% | 0.18%
